According to paper PMC10761660, “Preclinical evaluation of an ^18F-labeled N^ε-acryloyllysine piperazide for covalent targeting of transglutaminase 2” (EJNMMI Radiopharmacy and Chemistry, 2024):
Where two headings read alike, the source gives them in different places.

How the values were obtained:
[1] = design: method as in Wodtke et al. [2021]; conditions: in vitro; ref Wodtke et al. [2021]; cited from earlier work
[2] = system: A375-hS100A4 tumor xenograft (TGase 2 +); assay: Ex vivo biodistribution in tumor-bearing mice (A375-hS100A4); design: species or system mice (Rj:NMRI-Foxn1 nu/nu)
Method: (§1) For biodistribution studies in tumor-bearing mice, a number of 5 × 10^6 A375-hS100A4 or MeWo cells were resuspended in 100 µL PBS and injected subcutaneously into nude mice (Rj:NMRI-Foxn1 nu/nu). Tumor growth was monitored three times per week using caliper measurements. The injection of [^18F]7b and subsequent steps were performed as described above.

[3] = Stability in blood in vitro; type: in vitro ADME; conditions: incubation of the radiotracer in blood in vitro
[4] = design: method as in Wodtke et al. [2021]; conditions: ref Wodtke et al. [2021]; cited from earlier work
Liver microsome assay [5] = type: in vitro ADME, murine; conditions: for CLint scaled: read-out: predicted intrinsic clearance (pred. CLint); for half-life: t1/2 approach (at 3-4 µM), 1 mg/mL MLM, 2 mM NADPH
Method: Microsome experiments with [^18F]7b in the presence of NADPH were performed according to the procedure recently described by us with slight modifications (Lemm et al. [2022]). […] [^18F]7b dissolved in 0.5% ethanol/PBS (100 µL; 0.2% ethanol final, e.g. 108 MBq/mL or 4.1 µM final) was mixed with PBS (112.5 µL) and murine liver microsomes (MLM, 12.5 µL of 20 mg/mL stock; 1 mg/mL final; Gibco™ Cat. No. MSMCPL, Lot. No. MS053-A) in a 1.5 mL Eppendorf tube and the mixture was warmed for 5 min at 37 °C. Subsequently, NADPH (25 µL of freshly prepared 20 mM solution in PBS, 2 mM final) was added and the mixture was incubated at 37 °C. As a control incubation, the NADPH solution was replaced by PBS. At distinct time points (5, 10, 15, 30, and 60 min), an aliquot (40 µL) was withdrawn and added to ice-cold CH3CN (160 µL). The mixture was vortexed for 30 s, stored on ice for 4 min and centrifuged (5 min at 16,100 × g). The resulting supernatant was used for radio-HPLC and radio-TLC analyses. For radio-HPLC, the Shimadzu Nexera X2 UHPLC system described above including the conditions for analysis was used. Radio-TLC was carried out on reversed-phase TLC plates (ALUGRAM RP-18W/UV254 from Macherey–Nagel, Düren, Germany) with a mobile phase of 40% CH3CN in water containing 0.1% trifluoroacetic acid. Visualization of radioactive spots and subsequent analysis was conducted as described above.
Testosterone (40 µM final) was used as positive control for the activity of the MLM and was separately treated and analyzed after incubation times of 5, 10, 15, 30, and 60 min as described above (0% ethanol final; HPLC gradient profile: 45% eluent B for 10 min followed by washing of the column with 45% to 95% eluent B in 1 min, 95% eluent B for 5 min, 95% to 45% eluent B in 1 min, 45% eluent B for 8 min; total time of 25 min).
For that, solutions of [^18F]7b in 0.5% ethanol/PBS (10 µL; 0.1% ethanol final, 17 MBq/mL or 1.14 µM final) were mixed with the respective tenfold concentrated solutions of 7b dissolved in 10% DMSO/PBS (5 µL, 1% DMSO final and 5/10/20/40/80 µM of 7b final), PBS (27.5 µL) and murine liver microsomes (2.5 µL of 20 mg/mL stock) in a 1.5 mL Eppendorf tube and the mixture was warmed for 5 min at 37 °C. Subsequently, NADPH (5 µL of freshly prepared 20 mM solution in PBS, 2 mM final) was added and the mixture was incubated at 37 °C. At distinct time points (5, 10, 15, 20, and 30 min), an aliquot (5 µL) was withdrawn and added to ice-cold CH3CN (40 µL). The subsequent steps were performed as described above including analysis by radio-TLC.
For the t1/2 approach at n.c.a. level, the obtained fractions of intact [^18F]7b (by radio-HPLC or radio-TLC analysis) were plotted against the time. Nonlinear regression was performed by one-phase decay (equation 1) as implemented in GraphPad Prism (GraphPad Prism 9.5.1.733), which provided the t1/2 values. The fraction at X = 0 min, Y0, was constrained to 1.0.1 Y0=Y0-Plateau×e^-k×X+Plateau
Subsequently, the intrinsic clearance, CLint (mL*min^−1*kg^−1), was calculated using equation 2 (Obach et al. [1997]; Schneider et al. [2019])2 CLint=ln2/t1/2min×fuinc×1/MLM(mg/mL)×microsomalprotein/liverweightmg/g×liverweight/bodyweightg/kg with the scaling factors of 60.1 mg/g (microsomal protein/liver weight for rats as no value for mice could be found) (Carlile et al. [1997]) and 87.5 g/kg (liver weight/body weight for mice) (Davies and Morris [1993]). The concentration of the MLMs was 1 mg/mL.
For the Vmax/Km approach, the obtained fractions of intact [^18F]7b (by radio-TLC analysis) were plotted against the time (fraction plot). The concentration plot was obtained by transformation of the fractions into concentrations of 7b by taking the experimentally determined molar activity of [^18F]7b into account (i.e. final concentration of 1.14, 6.16, 11.14, 21.14, 41.14, and 81.14 µM for 7b in the performed experiments). Both plots were analyzed by nonlinear regression according to one-phase decay (equation 1). […]

[6] = system: MeWo tumor xenograft (TGase 2 −); assay: Ex vivo biodistribution in tumor-bearing mice (MeWo); design: species or system mice (Rj:NMRI-Foxn1 nu/nu)
Method: as §1

Liver microsome assay [7] = type: in vitro ADME, murine; conditions: MLM, without prior oxidation (data not shown)

C=CC(=O)NCCCCC(NC(=O)Cc1ccccc1)C(=O)N1CCN(c2cccc([18F])n2)CC1 (centres unmarked) [[^18F]7b]
GSH reactivity [1]: low
tumor/muscle ratio [2]: 1.4
[^18F]7b remaining intact [3]: ≥ 90%
logD7.4 [4]: 2.1
fraction of intact [^18F]7b (Liver microsome assay [5]; MLM, after 30 min in the absence of NADPH, radio-TLC): 0.984
Vmax (Liver microsome assay [5]; Michaelis–Menten analysis, degradation by MLM (1 mg/mL)): 0.37 µM/min
Vmax (Liver microsome assay [5]; Vmax/Km approach, substrate depletion, radio-TLC): 0.37 µM*mL*min^-1*mg^-1
CLint scaled (Liver microsome assay [5]; mouse, liver microsomes, Vmax/Km approach, mice): 1610 mL/min/kg
half-life (Liver microsome assay [5]; mouse, liver microsomes, radio-HPLC): 5.7 min
half-life (Liver microsome assay [5]; mouse, liver microsomes, radio-TLC): 7.2 min
CLint scaled (Liver microsome assay [5]; mouse, liver microsomes, t1/2 approach): 772 mL/min/kg
Km (Liver microsome assay [5]; mouse, liver microsomes, Vmax/Km approach, degradation by MLM, radio-TLC): 1500 nM
tumor/muscle ratio [6]: 1.0
susceptibility to glucuronidation (Liver microsome assay [7]): not susceptible to glucuronidation
